Results as given in patent US9370521B2, “Targeting GLI proteins in human cancer by small molecules” (The Regents of the University of California, priority 2011, dated 2016).

Key:
melanoma MelJuso = assay: In vivo efficacy, Mouse Xenograft Model (melanoma MelJuso); settings: 50 mg/kg i.p. daily for 14 days, FIG. 1
Method: (§1) The administered compounds were tested in vivo in the mouse xenograft model bearing human cancer cells. Briefly, female athymic nude mice strain NCRNU-M (5-10 weeks old, 20-25 grams in weight; Taconic, Germantown, N.Y.) was maintained in pathogen-free conditions. Three human cancer cell lines: NSCLC A549, melanoma MelJuso, and mesothelioma MS-1 were used. Five or ten mice were used in each group and injected s.c. with 3×10^6 cancer cells in the dorsal area in a volume of 100 μl. After inoculation, human cancer cells were allowed to grow in mice for 10-13 days to become visible tumor nodules. Animals were then injected with a compound of the embodiments at a dose of 50 mg/kg body weight (1 mg/mouse per day). Vehicle alone was used as control. The compounds and controls were adjusted in 40 ul volume for i.p. injection in the abdomens of the mice. Injections were performed daily around the same time for 14 days. Tumors were allowed to grow for 1-2 additional weeks after completion of the compound treatments. Tumor size was measured every three to four days, and tumor volumes were calculated using width (x) and length (y) (x^2y/2, where x<y). Throughout this period, general toxicity of the treatments was also monitored by measuring body weight of the mice. Data was presented as mean values (±S.D.).
In vivo efficacy study of Compounds 1, 2, 4, and 6 were performed using a Mouse Xenograft Model (Melanoma MelJuso). Mice were injected s.c. with 3×10^6 cells in the dorsal area in a volume of 100 μl. 13 days after inoculation, the mice started receiving treatments with the administered compound at a dose of 50 mg/kg body weight daily for 14 days (n=10). Vehicle alone was used as control (n=10). The administered compounds and vehicle were adjusted in a volume of 40 μl for i.p. injection in the abdomens of the mice. Tumor size and tumor volumes were calculated as described above.

Wnt signaling pathway = assay: Quantitative real-time RT-PCR of Wnt pathway genes in xenograft tumors; type: in vivo, mouse; settings: Melanoma tumor xenograft, compared to controls, FIG. 4
Method: (§2) Total RNA was isolated using Qiagen RNeasy Mini Kit (Valencia, Calif.). Hybridization probes and primers (Table 1) were purchased from Applied Biosystems (ABI, Foster City, Calif.). cDNA synthesis and Taqman® PCR were performed according to the manufactures' protocols. The gene expression was assayed in triplicate in ABI 7300 Real-time PCR System. Samples were normalized to their housekeeping gene GAPDH and then calculated by using 2^−dCt method.
To examine whether Compounds 1, 2, 4, and 6 suppressed tumor growth through inhibition of the Wnt signaling pathway in vivo, expression of the key components and direct target genes of the Wnt pathway (e.g. Wnt2, Axin2, EGFR, and Cyclin D1) were analyzed by quantitative real-time RT-PCR using total RNA isolated from the xenograft tumors. GAPDH served as a control. This RT-PCR analysis was performed using a “pooled” tumor from two randomly selected mice of each group with reasonable size tumors. […] The results are shown in FIG. 4, where C is control and V is vehicle.

[1] = tested on: Hedgehog signaling pathway; assay: Quantitative real-time RT-PCR of Hh pathway genes in xenograft tumors; type: in vivo, mouse; settings: Melanoma tumor (MelJuso) xenograft, pooled tumor from two mice, FIG. 4
Method: as §2
To examine whether Compounds 1, 2, 4, and 6 suppressed tumor growth through inhibition of the Hedgehog signaling pathway in vivo, expression of the key components and direct target genes of the Hh pathway (e.g. Gli1, Gli2, Gli3, HHIP and Cyclin D1) were analyzed by quantitative real-time RT-PCR using total RNA isolated from the xenograft tumors. GAPDH served as a control. This RT-PCR analysis was performed using a “pooled” tumor from two randomly selected mice of each group with reasonable size tumors. […] The results are shown in FIG. 4, where C is control and V is vehicle.

[2] = Additional toxicity study: body weight at different doses; type: in vivo, mouse; settings: mice, i.p. 25, 50 and 100 mg/kg for 6 consecutive days, FIG. 7
Method: Each dosing group contained 3 mice. The body weight of mice was measured using a scale. Results are the means±SD (error bars).
(§3) As preliminary in vivo toxicity study of Compounds 1, 2, 4, and 6, it was examined if there were changes of leukocyte population and loss of body weight in the mice after the treatment. At the completion of the in vivo studies as described herein, leukocytes (WBC: white blood cell, NE: neutrophil, LY: lymphocyte, MO: monocyte, EO: eosinophil, BA: basophil) from each animal from all treatment groups were collected and leukocyte population was counted through a blood cell counter. Body weights of control groups (n=10) and the treated group (n=10) were measured using a scale during the course of drug administration. […] In an additional toxicity study, effect of different doses of compounds 4 and 6 on the body weight of mice was examined. The compounds were i.p. injected in the abdomens at 3 different doses: 25, 50, and 100 mg/kg body weight to mice (3 mice per dosing group) for 6 consecutive days.

[3] = Preliminary in vivo toxicity: leukocyte population and body weight after in vivo treatment; design: species or system mouse; settings: mice
Method: as §1
After the in vivo studies were completed, different organs were resected from mice. These organs included liver, lung, heart, kidney, intestines, ovary, brain, spleen, skin, and muscle. The specimens were fixed in 4% buffered formaldehyde, embedded in paraffin, sectioned, and histologically analyzed by hematoxylin and eosin (HE) staining. The HE stained slides were examined by a mouse pathologist for toxicity evidence from all the organs as compared with vehicle controls. In addition, leukocytes (WBC: white blood cell, NE: neutrophil, LY: lymphocyte, MO: monocyte, EO: eosinophil, BA: basophil) from each animal from all treatment groups were collected and leukocyte population was counted through a blood cell counter.
as §3

Question: For `CCCC1C(C(=O)NCCCC(C)(C)CO)C(c2ccc(F)cc2)=NN1c1ccccc1` (stereo not shown) [Compound 4, 3-(4-fluoro-phenyl)-1-phenyl-5-propyl-4,5-dihydro-1H-pyrazole-4-carboxylic acid (5-hydroxy-4,4-dimethyl-pentyl)-amide], which “Tumor weight after treatment” value (melanoma MelJuso) is on record?
Answer: significantly decreased

Question: What about the “Tumor growth after treatment” value (melanoma MelJuso; vs vehicle) of the same compound?
Answer: dramatically suppressed

Question: And the “Expression of the key indicator of canonical Wnt activation in tumor” value (Wnt signaling pathway)?
Answer: significantly down-regulated

Question: And the “Hh signaling (expression of Gli1, Gli2, Gli3, HHIP, Cyclin D1) in tumor” value [1]?
Answer: inhibited

Question: And the “Loss of body weight” value [2]?
Answer: no noticeable loss

Question: What about the “Changes of leukocyte population” value ([3]; at completion of the in vivo studies, FIG. 5) of the same compound?
Answer: No noticeable changes

Question: And the “Loss of body weight” value ([3]; during the course of drug administration, FIG. 6)?
Answer: No noticeable changes of leukocyte population or loss of the body weight
